Series [1] concerns the target T1, recombinant human 5-HT5A receptor (Homo sapiens, UniProt P47898).
T1 construct: expressed in transfected cells; host or cells: Human Embryonic Kidney-EBNA (HEK-EBNA) cells, transient cDNA expression; membranes
The series can be described thus: [3H]LSD radioligand binding assay. To be noted: [3H]LSD approx. 1 nM; membranes from HEK-EBNA cells transiently expressing 5-HT5A; Ki from IC50 by Cheng-Prussoff. A digest of the protocol: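 Membranes from HEK-EBNA cells transiently expressing the receptor, with ~1 nM [3H]LSD in 50 mM Tris pH 7.4 (1 mM EGTA, 10 mM MgCl2, 10 μM pargyline), SPA read-out, 120 min at room temperature. Methiothepin 2 μM defined non-specific binding; 10-point IC50 converted to Ki by Cheng-Prusoff.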

In general, melting point refers to the temperature, or range, at which the solid turns liquid. As usually defined, the Ki is the dissociation constant of the complex between target and ligand, obtained from inhibition or displacement.

T1 sequence (P47898 whole entry): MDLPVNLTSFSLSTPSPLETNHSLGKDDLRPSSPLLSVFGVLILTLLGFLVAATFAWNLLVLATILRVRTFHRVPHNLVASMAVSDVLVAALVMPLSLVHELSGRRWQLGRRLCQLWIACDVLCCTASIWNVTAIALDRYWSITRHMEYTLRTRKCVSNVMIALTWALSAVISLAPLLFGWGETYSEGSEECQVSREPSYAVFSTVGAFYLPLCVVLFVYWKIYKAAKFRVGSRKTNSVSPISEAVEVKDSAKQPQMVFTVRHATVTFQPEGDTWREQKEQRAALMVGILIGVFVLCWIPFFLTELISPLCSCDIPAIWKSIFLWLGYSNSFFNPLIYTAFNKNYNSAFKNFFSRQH

`Cc1ccc(CNc2ccc3c(CNC(=O)c4ccc(F)cc4)cccc3n2)o1` [Example 126, 4-Fluoro-N-{2-[(5-methyl-furan-2-ylmethyl)-amino]-quinolin-5-ylmethyl}-benzamide]: the melting point was 173 °C.

As to `COc1ccccc1CNc1ccc2c(C(=N)c3ccc(F)cc3)cccc2n1` [Example 136, {5-[(4-Fluoro-phenyl)-imino-methyl]-quinolin-2-yl}-(2-methoxy-benzyl)-amine], the melting point was 155 °C. Further, the Ki in series [1] was 35.6 nM.

For the compound `COc1ccccc1CNc1ccc2c(CNC(=O)c3ccc(F)cc3)cccc2n1` [Example 146], the melting point is 162.5 °C. For the same compound, in series [1], the Ki is 86 nM.

In turn, `COc1ccccc1CNc1ccc2c(-c3noc(C)n3)cccc2n1` [Example 150, (2-Methoxy-benzyl)-[5-(5-methyl-[1,2,4]oxadiazol-3-yl)-quinolin-2-yl]-amine] yielded a melting point of 121.5 °C.

Regarding `COc1ccccc1CNc1ccc2c(C(=NO)c3ccc(F)cc3)cccc2n1` [Example 167, (4-Fluoro-phenyl)-[2-(2-methoxy-benzylamino)-quinolin-5-yl]-methanone oxime], the Ki in series [1] came out at 7.19 nM.

The record behind these values is patent publication US7825253B2, “2-aminoquinoline derivatives” (Hoffmann-La Roche Inc., priority 2006, dated 2010).
